The values below come from patent publication US20160219881A1, “HERBICIDALLY ACTIVE 2-HALOGEN-4-ALKYNYL-PHENYL-PYRAZOLIDINE-DIONE OR PYRROLIDINE-DIONE DERIVATIVES” (SYNGENTA LIMITED, priority 2013, published 2016).

Assay type in all cases: in vivo
Assay [1] has as its system Winter Wheat (variety ‘Hereward’). Description: Test 1B glasshouse assay, post-emergence phytotoxicity on winter wheat. The note with it: Triticum aestivum, 312 h, 13 days after application, read-out: Post-Emergence Herbicidal Activity (% Phytotoxicity) Winter Wheat (variety ‘Hereward’). The protocol:
Seeds of the Winter Wheat variety ‘Hereward’ were sown in standard soil (usually sandy soil) in pots. After 8 days cultivation under controlled conditions in a glasshouse (at 24/16° C., day/night; 14 hours light; 65% humidity), which is post-emergence, the plants were sprayed with an aqueous spray solution derived from the formulation of the technical active ingredient (compound) in acetone/water (50:50) solution containing 0.5% Tween 20 (polyoxyethylene sorbitan monolaurate, CAS RN 9005-64-5). The test plants were then grown on in a glasshouse under controlled conditions (at 24/16° C., day/night; 14 hours light; 65% humidity) and watered twice daily. 13 days after application of the test compounds, the test was evaluated visually for percentage phytotoxicity to each plant (where 100%=total damage to plant; 0%=no damage to plant).

Assay [2] deals with Triticum aestivum (TRZAW, winter wheat, variety ‘Hereward’). Put plainly: Test 1A glasshouse assay, post-emergence herbicidal activity. The conditions noted are these: 312 h, 13 days after application, read-out: Post-Emergence Herbicidal Activity (% Phytotoxicity) TRZAW. The protocol:
(§1) Seeds of a variety of test species are sown in standard soil (usually sandy soil) in pots. After cultivation for one day (pre-emergence) or after 8 days cultivation (post-emergence) under controlled conditions in a glasshouse (at 24/16° C., day/night; 14 hours light; 65% humidity), the plants are sprayed with an aqueous spray solution derived from the formulation of the technical active ingredient (compound) in acetone/water (50:50) solution containing 0.5% Tween 20 (polyoxyethylene sorbitan monolaurate, CAS RN 9005-64-5). The test plants are then grown under controlled conditions in a glasshouse (at 24/16° C., day/night; 14 hours light; 65% humidity) and watered twice daily. 13 days after application of the test compounds, for pre- and post-emergence, the test is evaluated visually for percentage phytotoxicity to each plant (where 100%=total damage to plant; 0%=no damage to plant).
(§2) Lolium perenne (LOLPE), Triticum aestivum (TRZAW, winter wheat, variety ‘Hereward’), Alopecurus myosuroides (ALOMY), Echinochloa crus-galli (ECHCG), and Avena fatua (AVEFA). All these are grassy monocotyledonous weeds and/or (for wheat) grassy crops.

Another assay deals with Lolium perenne (LOLPE). The description is as above. The conditions noted are these: 312 h, 13 days after application, read-out: Post-Emergence Herbicidal Activity (% Phytotoxicity) LOLPE. On the procedure:
as §1, §2

In assay [3] the test system is Avena fatua (AVEFA). Described as above. The conditions noted are these: 312 h, 13 days after application, read-out: Post-Emergence Herbicidal Activity (% Phytotoxicity) AVEFA. The protocol: as §1, §2
For assay [4], the system named is Cloquintocet-mexyl seed-treated Winter Wheat (variety ‘Hereward’). Put plainly: Test 1B glasshouse assay, post-emergence phytotoxicity on winter wheat whose seed has been treated with cloquintocet-mexyl. The note with it: Triticum aestivum, 312 h, seed treated with cloquintocet-mexyl 0.5 g/kg dry seed, 13 days after application, read-out: Post-Emergence Herbicidal Activity (% Phytotoxicity) Cloquintocet-mexyl seed-treated Winter Wheat (variety ‘Hereward’). The protocol: Seeds of the Winter Wheat variety ‘Hereward’ were seed treated with a wettable powder formulation of the cereal herbicide safener, cloquintocet-mexyl, at a rate of 0.5 grams per kilogram of dry seed, prior to the initiation of glasshouse testing. Three seeds were sown per 1.5 inch plastic pot into a standard soil (usually sandy soil) at a depth of 1 cm, prior to application of the test compounds and were watered and grown under controlled conditions in a glasshouse (at 24/16° C., day/night; 14 hours light; 65% humidity). After 8 days cultivation under these controlled conditions, the plants were sprayed post-emergence with an aqueous spray solution derived from the formulation of the technical active ingredient (compound) in acetone/water (50:50) solution containing 0.5% Tween 20 (polyoxyethylene sorbitan monolaurate, CAS RN 9005-64-5). The test plants were then grown on in a glasshouse under controlled conditions (at 24/16° C., day/night; 14 hours light; 65% humidity) and watered twice daily. 13 days after application of the test compounds, the test was evaluated visually for percentage phytotoxicity to each plant (where 100%=total damage to plant; 0%=no damage to plant).

Assay [5] concerns Avena fatua (AVEFA). Description: Test 1A glasshouse assay, pre-emergence herbicidal activity. The conditions noted are these: 312 h, 13 days after application, read-out: Pre-Emergence Herbicidal Activity (% Phytotoxicity) AVEFA. On the procedure:
as §1
Lolium perenne (LOLPE), Triticum aestivum (TRZAW, winter wheat), Alopecurus myosuroides (ALOMY), Echinochloa crus-galli (ECHCG), and Avena fatua (AVEFA). All these are grassy monocotyledonous weeds and/or (for wheat) grassy crops.

The structures appear in SMILES notation.

Turning to `CC#Cc1cc(C)c(C2C(=O)C(Cc3ccccn3)N(C)C2=O)c(C)c1` (centres unmarked) [Compound A50, 3-(2,6-dimethyl-4-prop-1-ynyl-phenyl)-1-methyl-5-(2-pyridylmethyl)pyrrolidine-2,4-dione], the inhibition at 15.625 g/ha in assay [1] (15.625 g/ha) came to 30%; in assay [2] (15.625 g/ha), 30%; with Lolium perenne (LOLPE) (15.625 g/ha), 40%; with Avena fatua (AVEFA) [3] (15.625 g/ha) it was 50%; in assay [4] (15.625 g/ha), 0%. The inhibition at 62.5 g/ha in assay [1] (62.5 g/ha) is 70%; in assay [2] (62.5 g/ha), 70%; with Lolium perenne (LOLPE) (62.5 g/ha), 70%; in the assay with Avena fatua (AVEFA) [3] (62.5 g/ha), 70%; in assay [4] (62.5 g/ha) it was 40%; in the assay with Avena fatua (AVEFA) [5] (62.5 g/ha) it was 60%. Further, the inhibition at 250 g/ha in assay [1] (250 g/ha) amounted to 80%; in assay [2] (250 g/ha), 80%; with Lolium perenne (LOLPE) (250 g/ha), 100%; with Avena fatua (AVEFA) [3] (250 g/ha), 100%; in assay [4] (250 g/ha) it was 60%; in the assay on Avena fatua (AVEFA) [5] (250 g/ha), 70%.
